Measurements from patent US20220127297A1, “Novel Antibacterial 3"-Derivatives Of 4,6-Disubstituted 2,5-Dideoxystreptamine Aminoglycoside Antibiotics” (AGILeBiotics B.V., priority 2018, published 2022).
Converted amounts (≈) assume the structure as drawn.

What was measured:
[1] = system: A. baumannii ATCC BAA-1800; assay: MIC 90, resistant ATCC strains of the ESKAPE panel; format: cell-based; conditions: Acinetobacter baumannii, ATCCBAA1800, MDR
Excerpt: (§1) 3.3 Protocol for MIC Determination (ATCC Strains)
(§2) Tested reference compounds. Amikacin sulfate (Cat. No. 01693, Chem-Impex), Gentamicin sulfate (Cat. No. G4918, Sigma Aldrich), Azithromycin (Cat. No. 1046056, USP), Ceftazidime Pentahydrate (Cat. No. 1098130, USP), Ciprofloxacin (Cat. No. 1134313, USP), Meropenem (Cat. No. 1392454, USP), Rifampicin (Cat. No. R0079, TCI), Tobramycin (Cat. No. 1667508, USP), Vancomycin (Cat. No. 1709007 USP).
(§3) Microbial strains. Staphylococcus aureus ATCC 29213, Staphylococcus aureus ATCC BAA-1717, Escherichia coli ATCC BAA-1025, Klebsiella pneumoniae ATCC BAA-1705, Klebsiella pneumoniae ATCC BAA-2524, Pseudomonas aeruginosa ATCC 27853, Pseudomonas aeruginosa ATCC BAA-2108, Acinetobacter baumannii ATCC BAA-1800.
(§4) Culture media and equipment. BBL™ Mueller Hinton Broth (REF 275730, Lot. 7009699, Becton Dickinson), Mueller Hinton Agar 2 (Ref. No. 97580-500G-F, Lot. No. BCBV4646, Sigma), Dulbecco's Modified Eagle's Medium (DMEM) (Cat. No. 41966-029, Gibco), Minimum Essential Medium (MEM) (Cat. No. 42360-024, Gibco), Fetal bovine serum (FBS) (Cat. No. F7524, Sigma), Non-essential amino acids (NEAA) (100×, Cat. No. 11140-035, Gibco), Sodium Pyruvate (100 mM, 100×, Cat. No. 11360-039, Gibco), Staurosporine (Cat. No. B50188, Biotrend), Cellstar 96-well plates U-bottom (Cat. No. 650180, Lot. No. E14123EB, Greiner Bio-one), CellTiter-Glo (Cat. No. G7573, Promega), 96-well plate V-bottom (Cat. No. 651201, Greiner), 96-well clear plate, U-bottom, (Cat. No. 650180, Greiner), 96-well white plate with clear bottom (Cat. No. 655098, Greiner), 96-well deep well plate 1 mL (Cat. No. 278606, Nunc), Sodium Pyruvate (100 mM, 100×, Gibco, Cat #11360-039), Incubator (Binder), Laminar flow (Thermo Scientific), BioPhotometer (Eppendorf); DEN-1B (McFarland Densitometer, Biosan); McFarland standards (polymer microparticle suspension, Biosan).
(§5) Compound preparation. The test compounds and reference antibiotics were prepared according to CLSI guidelines (Clinical and Laboratory Standards Institute (CLSI); Methods for dilution antimicrobial susceptibility tests for bacteria that grow aerobically; approved standard—ninth edition, M07-A9, Vol. 32, No. 2, 2012) as 5 mg/mL stock solutions in DMSO. Out of these DMSO solutions, 43.5 μL was transferred to 1656.5 μL of MH media in a deep well plate. Out of these working solutions 100 μL was transferred to wells in the third column of 96-well plates. Plates were previously filled with 50 μL of MH media in all wells except for the wells in the third column. After compound and antibiotic addition, 50 μL was transferred from the third to the fourth column, then from the fourth to the fifth and so on. In this manner, the compounds and antibiotics were plated in 96-well plate in serial two-fold dilutions giving a final concentration range of 64-0.125 μg/mL.
(§6) Preparation of microorganisms. Designations used for clinical isolates were from the Fidelta strain collection bank. Microorganisms used were all revived from skim milk storage at −70° C. by plating them on MH agar plates. The following day the single colony of each microorganism was again streaked on fresh agar plates. The next day, using the direct colony suspension method, broth solutions that achieve turbidity equivalent to 0.5 McFarland standard for each microorganism were prepared. […] Out of these suspensions, actual inoculums were prepared by diluting them 100× with MH media giving a final microorganism count of 2-8×10^5 CFU/mL. For each strain of microorganisms, 20 mL of these inoculum solutions were prepared. From the second to the twelfth column of 96-well plates, 50 μL of these solutions were transferred per well. To the first column, 50 μL per well of pure growth media was added. In this manner the first column was used as sterility control of media, the second column was used as control of microorganism's growth and the rest of the plate was used for MIC determination. All plates were incubated for 16-24 h at 37° C. […]

[2] = system: K. pneumoniae ATCC BAA-1705; assay: MIC 90, resistant ATCC strains of the ESKAPE panel; format: cell-based; conditions: Klebsiella pneumoniae, ATCCBAA1705, KPC
Excerpt: as §1, §2, §3, §4, §5, §6

[3] = system: K. pneumoniae ATCC BAA-2524; assay: MIC 90, resistant ATCC strains of the ESKAPE panel; format: cell-based; conditions: Klebsiella pneumoniae, ATCCBAA2524, OXA-48
Excerpt: as §1, §2, §3, §4, §5, §6

[4] = system: P. aeruginosa ATCC BAA-2108; assay: MIC 90, resistant ATCC strains of the ESKAPE panel; format: cell-based; conditions: Pseudomonas aeruginosa, ATCCBAA2108, MDR
Excerpt: as §1, §2, §3, §4, §5, §6

[5] = system: S. aureus ATCC BAA-1717; assay: MIC 90, resistant ATCC strains of the ESKAPE panel; format: cell-based; conditions: Staphylococcus aureus, MRSA
Excerpt: as §1, §2, §3, §4, §5, §6

[6] = Maximum tolerated dose (MTD) / acute toxicity study, IV; format: in vivo; conditions: for MTD at 4 days / LD50 at 4 days: male, CD (Sprague Dawley), rat, in vivo, iv; for LD50 at 4 days / LD50: rats, one-time IV dose over 15 min
Procedure: 4.4 Maximum Tolerated Dose (MTD) Study in Male CD (Sprague Dawley) Rats.
The study was performed in an AAALAC I—approved Facility. The standard study plan relating to this study was reviewed by the Ethical Committee (CARE-Zagreb) as required by International Laws/Regulations and Croatian Low on Animal Welfare (“The Animal Protection Act”, Official Gazette, NN 37/13) and Animal Welfare Officer.
In vivo studies were performed by Fidelta (Zagreb, Croatia) and all rats (Sprague Dawley) were obtained from Charles River Laboratories (Italy). Three compounds, i.e. ABX5006, ABX5020 and ABX5039 were tested to determine the MTD of the test articles in male CD (Sprague Dawley) rats following a one-time dose (IV).
MTD study: Pathogen-free male CD (Sprague Dawley) rats (3 rats per dosing group) weighing 225-260 g were used. Five different dosing groups (50 mg/kg, 75 mg/kg, 100 mg/kg, 150 mg/kg and 200 mg/kg) were used and the test article was administered intravenous over 15 min (slow injection, 5 mL/kg). […] Clinical signs, body weight, food consumption and mortality was recorded during the in-life phase of the study. All animals surviving to the end of the 4 day monitoring period were euthanized on day 4. Terminal studies included gross necropsy and organ weight recording of all animals.
Supplies/Chemicals. Sterile, single used needles (25 G Microlance, REF300400, Becton Dickinson); 2 mL syringes (REF300185, Becton Dickinson); Phosphate buffered saline (P3813, Sigma Aldrich); isoflurane anesthesia (Abbott, Netherlands)
Anesthesia. Animals were deeply anaesthetized using isoflurane and subsequently exsangunated for full post mortem examination.

Row | SMILES | MIC90 [1] [µg/mL] | MIC90 [2] [µg/mL] | MIC90 [3] [µg/mL] | MIC90 [4] [µg/mL] | MIC90 [5] [µg/mL] | MTD at 4 days [6] [mg/kg] | LD50 at 4 days [6] [mg/kg] | LD50 [6] [mg/kg]
1 | N=C(N)NC1[C@@H](O)C(OC2[C@@H](F)[C@H](O[C@H]3OC(CN)[C@@H](O)[C@H](O)C3N)C(N)C[C@H]2NC(=O)[C@@H](O)CCN)O[C@H](CO)[C@H]1O (stereo partly shown) [ABX4006, KanaB-AHB-F-Gua] | 16 (≈ 25.5 µM) | 2 (≈ 3.18 µM) | < 0.125 | 16 (≈ 25.5 µM) | 4 (≈ 6.36 µM) |  |  | 
2 | N=C(N)NC1C(O)[C@@H](CO)OC(OC2C(F)[C@H](O[C@H]3OC(CN)[C@@H](O)CC3N)C(N)C[C@H]2NC(=O)[C@@H](O)CCN)[C@@H]1O (stereo partly shown) [ABX5006, Tobra-AHB-F-Gua] | 16 (≈ 26.1 µM) | 2 (≈ 3.26 µM) | < 0.125 | 4 (≈ 6.53 µM) | 0.5 (≈ 0.816 µM) | 150 | > 200 | >200
3 | N=C(NCCN)NC1C(O)[C@@H](CO)OC(OC2C(F)[C@H](O[C@H]3OC(CN)[C@@H](O)CC3N)C(N)C[C@H]2NC(=O)[C@@H](O)CCN)[C@@H]1O (stereo partly shown) [ABX5020, Tobra-AHB-F-Gua-2-amino-ethyl] | 32 (≈ 48.8 µM) | 8 (≈ 12.2 µM) | 0.5 (≈ 0.763 µM) | 2 (≈ 3.05 µM) | 0.25 (≈ 0.381 µM) |  |  | 
4 | N=C(NC[C@@H]1CCCN1)NC1[C@@H](O)C(OC2[C@@H](F)[C@H](O[C@H]3OC(CN)[C@@H](O)CC3N)C(N)C[C@H]2NC(=O)[C@@H](O)CCN)O[C@H](CO)[C@H]1O (stereo partly drawn) [ABX5026, Tobra-AHB-F-Gua (S) pyrrolidine-2-yl-methyl] | 32 (≈ 46 µM) | 4 (≈ 5.75 µM) | 0.5 (≈ 0.719 µM) | 8 (≈ 11.5 µM) | 0.5 (≈ 0.719 µM) | 75 | > 75 | 
5 | N=C(NCCO)NC1[C@@H](O)C(OC2[C@@H](F)[C@H](O[C@H]3OC(CN)[C@@H](O)CC3N)C(N)C[C@H]2NC(=O)[C@@H](O)CCN)O[C@H](CO)[C@H]1O (stereo partly shown) [ABX5029, Tobra-AHB-F-Gua 2-hydroxy-ethyl] | 16 (≈ 24.4 µM) | 4 (≈ 6.09 µM) | 0.25 (≈ 0.381 µM) | 4 (≈ 6.09 µM) | 0.5 (≈ 0.761 µM) |  |  | 
6 | CNCCNC(=N)NC1[C@@H](O)C(OC2[C@@H](F)[C@H](O[C@H]3OC(CN)[C@@H](O)CC3N)C(N)C[C@H]2NC(=O)[C@@H](O)CCN)O[C@H](CO)[C@H]1O (stereo partly shown) [ABX5038, Tobra-AHB-F-Gua 2-(methylamino)ethyl] | 32 (≈ 47.8 µM) | 8 (≈ 11.9 µM) | 0.5 (≈ 0.747 µM) | 4 (≈ 5.97 µM) | 0.5 (≈ 0.747 µM) |  |  | 
7 | N=C(NC[C@@H]1CCNC1)NC1[C@@H](O)C(OC2[C@@H](F)[C@H](O[C@H]3OC(CN)[C@@H](O)CC3N)C(N)C[C@H]2NC(=O)[C@@H](O)CCN)O[C@H](CO)[C@H]1O (stereo partly drawn) [ABX5039, Tobra-AHB-F-Gua (R) pyrrolidine-3-ylmethyl] | 16 (≈ 23 µM) | 4 (≈ 5.75 µM) | 0.5 (≈ 0.719 µM) | 8 (≈ 11.5 µM) | 0.5 (≈ 0.719 µM) | 75 | > 75 | 75 to 100
8 | N=C(NC[C@@H]1CNCCO1)NC1[C@@H](O)C(OC2[C@@H](F)[C@H](O[C@H]3OC(CN)[C@@H](O)CC3N)C(N)C[C@H]2NC(=O)[C@@H](O)CCN)O[C@H](CO)[C@H]1O (stereo partly drawn) [ABX5040, Tobra-AHB-F-Gua (S) morpholin-2-yl methyl] | 32 (≈ 45 µM) | 8 (≈ 11.2 µM) | 0.5 (≈ 0.702 µM) | 8 (≈ 11.2 µM) | 0.5 (≈ 0.702 µM) |  |  | 
9 | N=C(NC[C@H]1CCNC1)NC1[C@@H](O)C(OC2[C@@H](F)[C@H](O[C@H]3OC(CN)[C@@H](O)CC3N)C(N)C[C@H]2NC(=O)[C@@H](O)CCN)O[C@H](CO)[C@H]1O (stereo partly drawn) [ABX5042, Tobra-AHB-F-Gua (S) pyrrolidine-3-ylmethyl] | 32 (≈ 46 µM) | 4 (≈ 5.75 µM) | 0.5 (≈ 0.719 µM) | 8 (≈ 11.5 µM) | 0.5 (≈ 0.719 µM) |  |  | 
10 | NCC[C@H](O)C(=O)N[C@@H]1C[C@H](N)[C@@H](O[C@H]2O[C@H](CN)[C@@H](O)[C@H](O)[C@H]2O)[C@H](O)[C@H]1O[C@H]1O[C@H](CO)[C@@H](O)[C@H](N)[C@H]1O [Amikacin, amikacin, reference compound] | 64 (≈ 109 µM) | 32 (≈ 54.6 µM) | 0.5 (≈ 0.854 µM) | 16 (≈ 27.3 µM) | 4 (≈ 6.83 µM) |  |  | 
